According to patent US20120095060A1, “METHODS AND COMPOSITIONS OF MITOGEN-ACTIVATED PROTEIN KINASE (MAPK) PATHWAY INHIBITORS FOR TREATING PULMONARY FIBROSIS” (priority 2010, published 2012):

Assays:
[1] = tested on: TGF-α-induced pulmonary fibrosis; assay: Prevention study: lung mechanics in TGF-α-induced pulmonary fibrosis; assay type: in vivo; conditions: CCSP/TGF-α mice, twice daily for 4 weeks from time of Dox, vs vehicle
From the text: To examine if ARRY prevented the physiologic effects of TGF-α-induced lung fibrosis, CCSP/TGF-α mice were given ARRY twice daily for 4 weeks while TGF-α was induced. […] More specifically, FIG. 3 illustrates that ARRY prevents TGF-α-mediated alterations in lung mechanics (*=p<0.05 compared to vehicle and ARRY-treated mice). […] Representative samples from four mice per group include low power (4×) and higher power (10×) of pleural fibrosis.
To induce TGF-α expression, adult transgenic mice (8-12 weeks old) were placed on Doxycycline-containing drinking water (0.5 mg/ml) and food (62.5 mg/kg). Dox-containing water was replaced three times per week.
Administration of ARRY142886: ARRY142886 (ARRY) is a potent, highly specific, allosteric inhibitor of MEK1/2. ARRY is a second generation MEK inhibitor that targets the Ras-Raf-MEK-ERK pathway. ARRY was administered to mice twice daily by gavage, with the first dose at the time of TGF-α induction with doxycycline. […]
(§1) Pulmonary Mechanics: Lung mechanics were assessed on anesthetized mice using a computerized Flexi Vent system (SCIREQ, Montreal, Canada). […] The ventilation mode was changed to forced oscillatory signal (0.5-19.6 Hz), and respiratory impedance was measured. […]

[2] = Rescue study of established fibrosis: body weight; assay type: in vivo; conditions: CCSP/TGFα mice, 8 weeks total Dox, treatment during last 4 weeks, vs vehicle
Description: (§2) To determine whether the ERK/MAPK pathway mediates the progression of established fibrosis, CCSP/TGFα mice were treated with ARRY following 4 weeks of Dox, while remaining on Dox for an additional 4 weeks (8 weeks total Dox, 4 week ARRY). Controls included CCSP/TGFα mice treated with vehicle while remaining on Dox an additional 4 weeks (8 weeks total Dox, 4 week vehicle). CCSP/TGFα mice began losing body weight after 4 weeks of Dox. […] See FIG. 6, illustrating that TGF-α was induced with doxycycline for 8 weeks in transgenic mice. ARRY added after 4 weeks of TGF-α expression attenuated weight loss, compared to vehicle-treated mice.
(§3) Administration of ARRY142886: ARRY142886 (ARRY) is a potent, highly specific, allosteric inhibitor of MEK1/2. ARRY is a second generation MEK inhibitor that targets the Ras-Raf-MEK-ERK pathway. ARRY was administered to mice twice daily by gavage, with the first dose at the time of TGF-α induction with doxycycline. Mice were then anesthetized (Isoflurane; Abbott Labs, Chicago, Ill.), and 37.5 mg/kg sterile ARRY142886 was administered by gavage using a 20 gauge feeding catheter (Harvard Apparatus, Holliston, Mass.). Mice were treated with vehicle or ARRY twice daily for up to 4 weeks. Mice were weighed at the beginning of the study and at weekly intervals.

[3] = tested on: established TGF-α-induced pulmonary fibrosis; assay: Rescue study of established fibrosis: lung mechanics; assay type: in vivo; conditions: CCSP/TGF-α mice, 8 weeks total Dox, treatment during last 4 weeks, vs vehicle
Description: as §2
See FIG. 7, illustrating that TGF-α was induced with doxycycline for 8 weeks in CCSP/TGF-α transgenic mice. ARRY added after 4 weeks of TGF-α expression prevented progression of alterations in lung mechanics compared to vehicle-treated mice. *=p<0.05 compared to vehicle control CSP/− mice. *#=p<0.05 compared to CCSP/TGF-α mice.
as §1

[4] = tested on: TGF-α-induced pulmonary fibrosis; assay: Prevention study: lung histology (trichrome stain); assay type: in vivo, mice
From the text: To examine if ARRY prevented the physiologic effects of TGF-α-induced lung fibrosis, CCSP/TGF-α mice were given ARRY twice daily for 4 weeks while TGF-α was induced. […] More specifically, FIG. 3 illustrates that ARRY prevents TGF-α-mediated alterations in lung mechanics (*=p<0.05 compared to vehicle and ARRY-treated mice). […] Representative samples from four mice per group include low power (4×) and higher power (10×) of pleural fibrosis. […] To induce TGF-α expression, adult transgenic mice (8-12 weeks old) were placed on Doxycycline-containing drinking water (0.5 mg/ml) and food (62.5 mg/kg). Dox-containing water was replaced three times per week. Administration of […]) is a potent, highly specific, allosteric inhibitor of MEK1/2. ARRY is a second generation MEK inhibitor that targets the Ras-Raf-MEK-ERK pathway. ARRY was administered to mice twice daily by gavage, with the first dose at the time of TGF-α induction with doxycycline. Mice were then anesthetized (Isoflurane; Abbott Labs, Chicago, Ill.), and 37.5 mg/kg sterile ARRY142886 was administered by gavage using a 20 gauge feeding catheter (Harvard Apparatus, Holliston, Mass.). Mice were treated with vehicle or ARRY twice daily for up to 4 weeks. Mice were weighed at the beginning of the study and at weekly intervals. […]

[5] = tested on: TGF-α-induced pulmonary fibrosis; assay: Prevention study: total lung collagen (Sircol Collagen Assay); assay type: in vivo; conditions: CCSP/TGF-α mice, twice daily for 4 weeks from time of Dox
From the text: To examine if ARRY prevented the physiologic effects of TGF-α-induced lung fibrosis, CCSP/TGF-α mice were given ARRY twice daily for 4 weeks while TGF-α was induced. […] More specifically, FIG. 3 illustrates that ARRY prevents TGF-α-mediated alterations in lung mechanics (*=p<0.05 compared to vehicle and ARRY-treated mice). […] Representative samples from four mice per group include low power (4×) and higher power (10×) of pleural fibrosis. […] To induce TGF-α expression, adult transgenic mice (8-12 weeks old) were placed on Doxycycline-containing drinking water (0.5 mg/ml) and food (62.5 mg/kg). Dox-containing water was replaced three times per week. Administration of […]) is a potent, highly specific, allosteric inhibitor of MEK1/2. ARRY is a second generation MEK inhibitor that targets the Ras-Raf-MEK-ERK pathway. ARRY was administered to mice twice daily by gavage, with the first dose at the time of TGF-α induction with doxycycline. Mice were then anesthetized (Isoflurane; Abbott Labs, Chicago, Ill.), and 37.5 mg/kg sterile ARRY142886 was administered by gavage using a 20 gauge feeding catheter (Harvard Apparatus, Holliston, Mass.). […] Total Lung Collagen: Total lung collagen was determined by measuring total soluble collagen (Sircol Collagen Assay, Biocolor, Ireland). […] The optical density measured with a spectrophotometer (540 nm).

[6] = tested on: established TGF-α-induced pulmonary fibrosis; assay: Rescue study of established fibrosis: lung histology (trichrome stain); assay type: in vivo; conditions: CCSP/TGF-α mice, 8 weeks total Dox, treatment during last 4 weeks
Description: To determine whether the ERK/MAPK pathway mediates the progression of established fibrosis, CCSP/TGFα mice were treated with ARRY following 4 weeks of Dox, while remaining on Dox for an additional 4 weeks (8 weeks total Dox, 4 week ARRY). Controls included CCSP/TGFα mice treated with vehicle while remaining on Dox an additional 4 weeks (8 weeks total Dox, 4 week vehicle). CCSP/TGFα mice began losing body weight after 4 weeks of Dox. […] See FIG. 6, illustrating that TGF-α was induced with doxycycline for 8 weeks in transgenic mice. ARRY added after 4 weeks of TGF-α expression attenuated weight loss, compared to vehicle-treated mice. […] See FIG. 8, illustrating that ARRY prevents progression of TGF-α induced fibrosis as assessed by lung histology using a trichrome stain. In FIG. 8, a representative sample from 4 mice per group includes low power (4×) and higher power (10×) of pleural fibrosis. […] Lung Histology and Immunohistochemistry: Mice were killed with pentobarbital sodium (65 mg/ml) euthanasia solution (Fort Dodge Animal Health, Fort Dodge, Iowa), and lungs were inflation fixed using 4% paraformaldehyde at 25 cm H2O of pressure, and then allowed to fix overnight at 4° C. Fixed lungs were then washed with phosphate-buffered saline (PBS), dehydrated through a graded series of ethanols, and processed for paraffin embedding. […]

[7] = tested on: phosphorylation of ERK1/2; assay: Western blot of lung homogenates for ERK1/2 phosphorylation in CCSP/TGF-α mice; assay type: in vivo; conditions: twice daily by gavage, 4 days of TGF-α induction, vs vehicle
Description: Western Blots: Western blot analysis was performed on lung homogenates of CCSP/TGF-α mice treated with 4 days of Dox. Controls were littermate single transgene CCSP/− mice treated with 1 day of Dox. Protein concentrations were assessed using a Bradford Assay and protein loaded on a 4%-20% Tris/glycine SDSPAGE (Invitrogen) and electroblotted to PVDF membranes (0.45 um: Bio-Rad). Blots were blocked with 5% nonfat dry milk in TBST (10 mM Tris, pH 8, 150 mM NaCl, 0.1% Tween 20) and incubated with antibodies against total and phosphorylated Erk (Cell Signaling Technology) and proliferating cell nuclear antigen (PCNA) (Cell Signaling Technology). Blots were washed in TBST and incubated with goat anti-rabbit horse radish peroxidase conjugated (Calbiochem, EMD Biosciences) secondary antibodies and developed on film by chemiluminescence using the ECL Plus system (Amersham Biosciences). Densitometry was performed using the volume integration function on a Phosphorlmager software Imagequant 5.2 (Molecular Dynamics, Sunnyvale, Calif.) after scanning the films.

[8] = tested on: TGF-α-induced cellular proliferation; assay: Epithelial and mesenchymal proliferation in lung sections of CCSP/TGF-α mice; assay type: in vivo; conditions: twice daily by gavage, 4 days of TGF-α induction
Description: ARRY was administered to CCSP/TGF-α mice (i.e., mice expressing TGF-α in the epithelium, under control of the doxycycline (Dox)-regulatable Clara cell secretory protein promoter) twice daily by gavage, with the first dose at the time of TGF-α induction with doxycycline. Mice were sacrificed after 4 days of TGF-α induction and ARRY administration.
as §3
Lung Histology and Immunohistochemistry: Mice were killed with pentobarbital sodium (65 mg/ml) euthanasia solution (Fort Dodge Animal Health, Fort Dodge, Iowa), and lungs were inflation fixed using 4% paraformaldehyde at 25 cm H2O of pressure, and then allowed to fix overnight at 4° C. […]

[9] = tested on: TGF-α-induced pulmonary fibrosis; assay: Prevention study: lung proliferation and matrix gene expression (Collagens I, III and Elastin); assay type: in vivo; conditions: TGF-α transgenic mice, 4 weeks twice daily, vs vehicle
Description: A 4-week study was performed to evaluate the physiologic effects of MEK1/2 kinase inhibition with ARRY on TGF-α-induced pulmonary fibrosis. ARRY was administered to TGF-α transgenic mice; a model for studying pulmonary fibrosis. Endpoints included changes in lung mechanics, lung histology, lung cell proliferation and changes in matrix gene expression (Collagens I, III and Elastin). Differences in the parameters were compared between mice treated with and without ARRY. Mice which over express TGF-α that were treated with 4 weeks of vehicle (i.e. an innocuous or inert medication) developed severe lung fibrosis on histology and lung collagen measurements associated with severe lung restriction on lung mechanics. […] Together, these findings support that MEK1/2 inhibition prevents TGF-α/EGF-mediated pulmonary fibrosis, and is a possible pharmacological strategy to treat pulmonary fibrosis.

ERK1/2 = conditions: previously shown; cited from earlier work
[10] = tested on: TGF-α-induced pulmonary fibrosis; conditions: previous study; cited from earlier work

Cn1cnc2c(F)c(Nc3ccc(Br)cc3Cl)c(C(=O)NOCCO)cc21 [ARRY142886]
lung mechanics (airway resistance, airway and tissue elastance, compliance) [1]: no changes in lung mechanics
lung mechanics (airway resistance, airway and tissue elastance, compliance) ([1]; listed as ARRY): prevented TGFα-mediated increases in airway resistance, and airway and tissue elastance and decreases in compliance
body weight loss [2]: Body weight loss was attenuated
lung mechanics (compliance, airway resistance, elastance) [3]: improved lung mechanics
lung fibrosis on lung histology ([4]; CCSP/TGF-α mice, twice daily for 4 weeks from time of Dox, trichrome stain): prevents TGF-α-induced pulmonary fibrosis as demonstrated by lung histology
lung fibrosis overall (4-week prevention study) ([4]; TGF-α transgenic mice, 4 weeks twice daily, vs vehicle): complete prevention of lung fibrosis
total lung collagen [5]: prevents TGF-α-induced fibrosis as assessed by total lung collagen
pulmonary fibrosis measured by lung matrix expression on lung histology [6]: reduced pulmonary fibrosis
phosphorylation of ERK1/2 in lung homogenates [7]: inhibited increased phosphorylation of ERK1/2
TGF-α-induced cellular proliferation (epithelial and mesenchymal) in lung sections [8]: dose-dependent inhibition of TGF-α-induced cellular proliferation
lung proliferation and matrix gene expression [9]: significantly reduced lung proliferation and matrix gene expression

C=CCN(/C=C1/C(=O)O[C@H](COC)[C@@]2(C)C1=C(O)C(=O)C1=C2[C@H](OC(C)=O)C[C@]2(C)C(=O)CC[C@@H]12)CC=C [PX-866]
phosphorylation of ERK1/2 in treated TGF-α mice (ERK1/2): remain phosphorylated

C#Cc1cccc(Nc2ncnc3cc(OCCOC)c(OCCOC)cc23)c1 [erlotinib]
fibrosis in the CCSP/TGF-α transgenic model [10]: prevented fibrosis

COc1cc2ncnc(Nc3ccc(F)c(Cl)c3)c2cc1OCCCN1CCOCC1 [gefitinib]
fibrosis in the CCSP/TGF-α transgenic model [10]: prevented fibrosis
